Results taken from ChEMBL document CHEMBL3813672, “Discovery of anti-cancer activity for benzo[1,2,4]triazin-7-ones: Very strong correlation to pleurotin and thioredoxin reductase inhibition” (Bioorg Med Chem, 2016).

How the values were obtained:
SN12C = test: Growth inhibition of human SN12C cells assessed as cell growth at 10 uM incubated for 48 hrs by sulforhodamine B assay relative to control; assay type: functional; settings: read-out: Activity
SK-MEL-5 = test: Growth inhibition of human SK-MEL-5 cells assessed as cell growth at 10 uM incubated for 48 hrs by sulforhodamine B assay relative to control; assay type: functional; settings: SK-MEL-5, 48 h, read-out: Activity
[1] = Growth inhibition of human TK10 cells assessed as cell growth at 10 uM incubated for 48 hrs by sulforhodamine B assay relative to control; assay type: functional; settings: TK-10, 48 h, read-out: Activity
[2] = Growth inhibition of human Hs 578T cells assessed as cell growth at 10 uM incubated for 48 hrs by sulforhodamine B assay relative to control; assay type: functional; settings: read-out: Activity
[3] = Growth inhibition of human IGROV1 cells assessed as cell growth at 10 uM incubated for 48 hrs by sulforhodamine B assay relative to control; assay type: functional; settings: IGROV-1, 48 h, read-out: Activity
[4] = Growth inhibition of human SF268 cells assessed as cell growth at 10 uM incubated for 48 hrs by sulforhodamine B assay relative to control; assay type: functional; settings: SF-268, 48 h, read-out: Activity
U-251 = test: Growth inhibition of human U251 cells assessed as cell growth at 10 uM incubated for 48 hrs by sulforhodamine B assay relative to control; assay type: functional; settings: U-251, 48 h, read-out: Activity
[5] = Growth inhibition of human SNB75 cells assessed as cell growth at 10 uM incubated for 48 hrs by sulforhodamine B assay relative to control; assay type: functional; settings: SNB-75, 48 h, read-out: Activity
NCI/ADR-RES = test: Growth inhibition of human NCI/ADR-RES cells assessed as cell growth at 10 uM incubated for 48 hrs by sulforhodamine B assay relative to control; assay type: functional; settings: read-out: Activity
[6] = Growth inhibition of human RPMI8226 cells assessed as cell growth at 10 uM incubated for 48 hrs by sulforhodamine B assay relative to control; assay type: functional; settings: RPMI-8226, 48 h, read-out: Activity
[7] = Growth inhibition of human OVCAR5 cells assessed as cell growth at 10 uM incubated for 48 hrs by sulforhodamine B assay relative to control; assay type: functional; settings: OVCAR-5, 48 h, read-out: Activity
NCI-H322M = test: Growth inhibition of human NCI-H322M cells assessed as cell growth at 10 uM incubated for 48 hrs by sulforhodamine B assay relative to control; assay type: functional; settings: read-out: Activity
MDA-MB-231 = test: Growth inhibition of human MDA-MB-231/ATCC cells assessed as cell growth at 10 uM incubated for 48 hrs by sulforhodamine B assay relative to control; assay type: functional; settings: MDA-MB-231, 48 h, read-out: Activity
MDA-MB-468 = test: Growth inhibition of human MDA-MB-468 cells assessed as cell growth at 10 uM incubated for 48 hrs by sulforhodamine B assay relative to control; assay type: functional; settings: MDA-MB-468, 48 h, read-out: Activity
[8] = Growth inhibition of human HCT116 cells assessed as cell growth at 10 uM incubated for 48 hrs by sulforhodamine B assay relative to control; assay type: functional; settings: HCT-116, 48 h, read-out: Activity
MCF7 = test: Cytotoxicity against human MCF7 cells assessed as reduction in cell viability after 72 hrs by MTT assay; assay type: functional, cell-based; settings: MCF7, 72 h
[9] = Growth inhibition of human SF295 cells assessed as cell growth at 10 uM incubated for 48 hrs by sulforhodamine B assay relative to control; assay type: functional; settings: SF-295, 48 h, read-out: Activity
[10] = Growth inhibition of human UACC62 cells assessed as cell growth at 10 uM incubated for 48 hrs by sulforhodamine B assay relative to control; assay type: functional; settings: UACC-62, 48 h, read-out: Activity
[11] = Quasi-reversible one electron redox potential in dichloromethane containing 0.1 M TBAP assessed as assessed as redox potential during -1/-2 redox transition at 2 mmol measured at 100 mV/s in presence of Fc/Fc by cyclic voltammetry; assay type: physicochemical
[12] = Growth inhibition of human SF539 cells assessed as cell growth at 10 uM incubated for 48 hrs by sulforhodamine B assay relative to control; assay type: functional; settings: SF-539, 48 h, read-out: Activity
CCRF-CEM = test: Growth inhibition of human CCRF-CEM cells assessed as cell growth at 10 uM incubated for 48 hrs by sulforhodamine B assay relative to control; assay type: functional; settings: read-out: Activity
[13] = Growth inhibition of human PC3 cells assessed as cell growth at 10 uM incubated for 48 hrs by sulforhodamine B assay relative to control; assay type: functional; settings: PC-3, 48 h, read-out: Activity
[14] = Growth inhibition of human HOP92 cells assessed as cell growth at 10 uM incubated for 48 hrs by sulforhodamine B assay relative to control; assay type: functional; settings: HOP-92, 48 h, read-out: Activity
[15] = Growth inhibition of human MOLT4 cells assessed as cell growth at 10 uM incubated for 48 hrs by sulforhodamine B assay relative to control; assay type: functional; settings: MOLT-4, 48 h, read-out: Activity
[16] = Growth inhibition of human DU145 cells assessed as cell growth at 10 uM incubated for 48 hrs by sulforhodamine B assay relative to control; assay type: functional; settings: DU-145, 48 h, read-out: Activity
HT-29 = test: Growth inhibition of human HT-29 cells assessed as cell growth at 10 uM incubated for 48 hrs by sulforhodamine B assay relative to control; assay type: functional; settings: HT-29, 48 h, read-out: Activity
[17] = Growth inhibition of human SW620 cells assessed as cell growth at 10 uM incubated for 48 hrs by sulforhodamine B assay relative to control; assay type: functional; settings: SW-620, 48 h, read-out: Activity
A549 = test: Growth inhibition of human A549/ATCC cells assessed as cell growth at 10 uM incubated for 48 hrs by sulforhodamine B assay relative to control; assay type: functional; settings: A549, 48 h, read-out: Activity
[18] = Cytotoxicity against human GM00637 cells assessed as reduction in cell viability after 72 hrs by MTT assay; assay type: cell-based; settings: GM00637, 72 h
NCI-H226 = test: Growth inhibition of human NCI-H226 cells assessed as cell growth at 10 uM incubated for 48 hrs by sulforhodamine B assay relative to control; assay type: functional; settings: NCI-H226, 48 h, read-out: Activity
[19] = Growth inhibition of human Caki1 cells assessed as cell growth at 10 uM incubated for 48 hrs by sulforhodamine B assay relative to control; assay type: functional; settings: CAKI-1, 48 h, read-out: Activity
A498 = test: Growth inhibition of human A498 cells assessed as cell growth at 10 uM incubated for 48 hrs by sulforhodamine B assay relative to control; assay type: functional; settings: A498, 48 h, read-out: Activity
[20] = Growth inhibition of human BT549 cells assessed as cell growth at 10 uM incubated for 48 hrs by sulforhodamine B assay relative to control; assay type: functional; settings: BT-549, 48 h, read-out: Activity
[21] = Growth inhibition of human RXF393 cells assessed as cell growth at 10 uM incubated for 48 hrs by sulforhodamine B assay relative to control; assay type: functional; settings: RXF 393, 48 h, read-out: Activity

Row | Structure (SMILES) | growth at 10 µM (SN12C) | growth at 10 µM (SK-MEL-5) | growth at 10 µM [1] | growth at 10 µM [2] | growth at 10 µM [3] | growth at 10 µM [4] | growth at 10 µM (U-251) | growth at 10 µM [5] | growth at 10 µM (NCI/ADR-RES) | growth at 10 µM [6] | growth at 10 µM [7] | growth at 10 µM (NCI-H322M) | growth at 10 µM (MDA-MB-231) | growth at 10 µM (MDA-MB-468) | growth at 10 µM [8] | IC50 (MCF7) | growth at 10 µM [9] | growth at 10 µM [10] | Activity [11] | growth at 10 µM [12] | further results
1 | O=c1ccc2nc(C(F)(F)F)nn(-c3ccccc3)c-2c1 | 67.9% | 32.7% | -95% | 74% | 71.7% | 77.4% | 69.7% | 86.5% | 84% | 45.6% | 102% | 99.8% | 61% | -73.5% | 35.2% | 600 nM | 91.9% | 66.4% | -1.55 V | 92.8% | growth at 10 µM (CCRF-CEM): -0.27%; growth at 10 µM [13]: 84.5%; growth at 10 µM [14]: 35.2%; growth at 10 µM [15]: -20.5%; growth at 10 µM [16]: 40.5%; growth at 10 µM (HT-29): -64.3%; growth at 10 µM [17]: -63.3%; growth at 10 µM (A549): 93%; IC50 [18]: 1610 nM; growth at 10 µM (NCI-H226): 77.7%; growth at 10 µM [19]: 56%; growth at 10 µM (A498): 79.9%; growth at 10 µM [20]: 69.2%; growth at 10 µM [21]: -20.4%
2 | O=c1ccc2nc(-c3ccccc3)nn(-c3ccccc3)c-2c1 | 40.2% | 19.5% | -95.9% | 75.9% | 2.56% | 70.5% | 66.2% | 93.2% | 96.2% | -6.53% | 102% | 66.2% | 76.3% | -61.6% | -90.7% | 810 nM | 23.9% | 30.1% | -1.75 V | 105% | growth at 10 µM (CCRF-CEM): -16.4%; growth at 10 µM [13]: 43.5%; growth at 10 µM [14]: -33%; growth at 10 µM [15]: -37.6%; growth at 10 µM [16]: -95.5%; growth at 10 µM (HT-29): -53.5%; growth at 10 µM [17]: -60.5%; growth at 10 µM (A549): 73.6%; IC50 [18]: 230 nM; growth at 10 µM (NCI-H226): 66.1%; growth at 10 µM [19]: -90.9%; growth at 10 µM (A498): 84.4%; growth at 10 µM [20]: 90.2%; growth at 10 µM [21]: -92.8%
